In one assay the target is T1, M1 muscarinic receptor (Homo sapiens, UniProt P11229).
T1 construct: expressed in transfected cells; host or cells: CHO (M1-CHO)
T1 sequence (P11229 1-460): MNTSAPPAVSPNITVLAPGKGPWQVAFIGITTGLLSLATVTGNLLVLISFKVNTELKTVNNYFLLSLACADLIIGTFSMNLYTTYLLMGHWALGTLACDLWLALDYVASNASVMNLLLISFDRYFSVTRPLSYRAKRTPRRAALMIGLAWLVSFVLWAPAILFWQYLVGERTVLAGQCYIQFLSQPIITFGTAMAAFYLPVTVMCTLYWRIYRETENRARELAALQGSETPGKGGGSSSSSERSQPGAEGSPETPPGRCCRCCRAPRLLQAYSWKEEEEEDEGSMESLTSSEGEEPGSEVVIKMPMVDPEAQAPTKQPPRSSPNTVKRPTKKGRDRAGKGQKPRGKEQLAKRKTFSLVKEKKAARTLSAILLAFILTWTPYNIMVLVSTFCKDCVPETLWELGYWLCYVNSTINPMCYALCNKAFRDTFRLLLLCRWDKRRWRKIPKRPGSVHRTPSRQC
Kind of assay: Functional mobilization of intracellular calcium (FLIPR) in M1-CHO cells. The following applies: M1 receptor, calcium mobilization; for Emax: read-out: M1 Efficacy. The format is cell-based. In outline:
(§1)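 Steps: seed M1- or M4-CHO cells 18-24 hrs ahead; load calcium dye with 1 mM probenecid; add test compound (0.5% DMSO final), either alone for agonism or 15 min before EC80 carbachol for inhibition; record FLIPR fluorescence for 60 sec.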
A general note: A change in cytosolic calcium serves as a functional read-out for many receptors and channels.

In a further assay the target is T2, M4 muscarinic receptor (Homo sapiens, UniProt P08173).
T2 construct: expressed in transfected cells; host or cells: CHO (M4-CHO)
T2 sequence (P08173 1-479): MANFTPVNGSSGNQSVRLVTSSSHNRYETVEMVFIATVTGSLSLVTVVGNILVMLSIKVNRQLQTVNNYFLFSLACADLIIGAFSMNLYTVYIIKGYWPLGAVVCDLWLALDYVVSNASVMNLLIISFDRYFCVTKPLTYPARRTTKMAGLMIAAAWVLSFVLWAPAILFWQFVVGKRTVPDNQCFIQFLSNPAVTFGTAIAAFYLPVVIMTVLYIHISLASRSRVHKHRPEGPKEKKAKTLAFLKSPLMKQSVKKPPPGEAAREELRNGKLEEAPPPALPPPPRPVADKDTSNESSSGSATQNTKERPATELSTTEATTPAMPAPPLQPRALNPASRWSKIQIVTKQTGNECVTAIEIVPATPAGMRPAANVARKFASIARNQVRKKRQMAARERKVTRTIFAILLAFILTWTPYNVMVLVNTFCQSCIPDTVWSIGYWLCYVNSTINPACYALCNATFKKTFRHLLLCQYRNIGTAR
The assay is described as follows: Functional mobilization of intracellular calcium (FLIPR) in M4-CHO cells. The format is cell-based. The following applies: M4 receptor, calcium mobilization; for Emax: read-out: M4 Efficacy. Summed up: as §1

Regarding `CC(=O)N[C@H]1CC2(CCN(C3CCC(c4ccccc4)CC3)CC2)c2ccccc21` (some centres unmarked) [compound 273], at M1 muscarinic receptor, the “M1 Activity” value was “xxx (activity was measured to be less than 0.1 μM)” and the Emax is > 85%. Besides, at M4 muscarinic receptor, the “M4 Activity” value was “xx (activity was measured to be between 0.1 μM and 1.0 μM)”; the Emax is > 85%.

For `CC(=O)N[C@H]1CC2(CCN([C@H]3C[C@@H]4CC[C@@H]3C4)CC2)c2ccccc21` [compound 274], on M1 muscarinic receptor, the “M1 Activity” value was “xxx (activity was measured to be less than 0.1 μM)” and the Emax lay within 65 to 85%. Also, at M4 muscarinic receptor, the “M4 Activity” value is given as “x (activity was measured to be greater than 1.0 μM)” and the Emax was > 85%.

Consider `CCOC(=O)N[C@@H]1CC2(CCN(C[C@H]3C[C@H]4CC[C@H]3C4)CC2)c2ccccc21` [compound 275], for which, on M1 muscarinic receptor, the “M1 Activity” value is given as “xxx (activity was measured to be less than 0.1 μM)” and the Emax fell in the range of 65 to 85%. In addition, at M4 muscarinic receptor, the “M4 Activity” value was “xx (activity was measured to be between 0.1 μM and 1.0 μM)”; the Emax is > 85%.

For `Clc1ccc2c(c1)C1(CCO2)CCN(C2CCCCC2)CC1` [compound 276], at M1 muscarinic receptor, the “M1 Activity” value is on record as “xxx (activity was measured to be less than 0.1 μM)” and the Emax is 65 to 85%. For the same molecule, at M4 muscarinic receptor, the “M4 Activity” value is given as “x (activity was measured to be greater than 1.0 μM)” and the Emax was 65 to 85%.

Consider `CCOC(=O)N1CCC(N2CCC3(CC2)CN(C(C)=O)c2ccc(-c4ccccc4C#N)cc23)CC1` [compound 277], for which, on M1 muscarinic receptor, the “M1 Activity” value is “xxx (activity was measured to be less than 0.1 μM)” and the Emax fell in the range of 65 to 85%. At M4 muscarinic receptor, the “M4 Activity” value is recorded as “x (activity was measured to be greater than 1.0 μM)” and the Emax is < 65%.

For `CCOC(=O)N1C2CCC1CC(N1CCC3(CC1)c1ccccc1C(=O)C3(C)C)C2` (centres unmarked) [compound 278], on M1 muscarinic receptor, the “M1 Activity” value is “xx (activity was measured to be between 0.1 μM and 1.0 μM)”; the Emax fell in the range of 65 to 85%. Besides, on M4 muscarinic receptor, the “M4 Activity” value was “xx (activity was measured to be between 0.1 μM and 1.0 μM)”; the Emax lay within 65 to 85%.

On to `CC(=O)N1CC2(CCN(C3CCN(C(=O)O[C@@H]4CCOC4)CC3)CC2)c2cc(C)ccc21` [compound 279], for which, at M1 muscarinic receptor, the “M1 Activity” value was “xx (activity was measured to be between 0.1 μM and 1.0 μM)”; the Emax was < 65%. At M4 muscarinic receptor, the “M4 Activity” value is “xx (activity was measured to be between 0.1 μM and 1.0 μM)”; the Emax is < 65%.

As to `CC(=O)N[C@H]1CC2(CCN(C3CCC(C)CC3)CC2)c2ccccc21` (some centres unmarked) [compound 280], on M1 muscarinic receptor, the “M1 Activity” value is “x (activity was measured to be greater than 1.0 μM)” and the Emax fell in the range of 65 to 85%. Also, on M4 muscarinic receptor, the “M4 Activity” value is “x (activity was measured to be greater than 1.0 μM)” and the Emax lay in the range of 65 to 85%.

On to `CCOC(=O)N1CCC(N2CCC3(CC2)CN(C(=O)C2CCCCC2)c2ccc(F)cc23)CC1` [compound 281], for which, on M1 muscarinic receptor, the “M1 Activity” value is “xx (activity was measured to be between 0.1 μM and 1.0 μM)”; the Emax is < 65%. At M4 muscarinic receptor, the “M4 Activity” value is “xx (activity was measured to be between 0.1 μM and 1.0 μM)”; the Emax lay within 65 to 85%.

In the case of `CCOC(=O)N1CCC(N2CCC3(CC2)CN(C(=O)C(C)(C)C)c2ccc(F)cc23)CC1` [compound 282], at M1 muscarinic receptor, the “M1 Activity” value is recorded as “xxx (activity was measured to be less than 0.1 μM)” and the Emax was < 65%. For the same molecule, on M4 muscarinic receptor, the “M4 Activity” value is “xx (activity was measured to be between 0.1 μM and 1.0 μM)”; the Emax was 65 to 85%.

Turning to `CCCOC(=O)N1C2CCC1CC(N1CCC3(CC1)COc1ccc(F)cc13)C2` (centres unmarked) [compound 283], on M1 muscarinic receptor, the “M1 Activity” value is “xx (activity was measured to be between 0.1 μM and 1.0 μM)”; the Emax was in the range of 65 to 85%. On M4 muscarinic receptor, the “M4 Activity” value is given as “x (activity was measured to be greater than 1.0 μM)” and the Emax was in the range of 65 to 85%.

Turning to `COCCOC(=O)N1CCC(N2CCC3(CC2)CN(C(C)=O)c2ccc(F)cc23)CC1` [compound 284], at M1 muscarinic receptor, the “M1 Activity” value was “xx (activity was measured to be between 0.1 μM and 1.0 μM)”; the Emax is < 65%. At M4 muscarinic receptor, the “M4 Activity” value is “xx (activity was measured to be between 0.1 μM and 1.0 μM)”; the Emax is < 65%.

As to `CC(C)OC(=O)N1C2CCC1CC(N1CCC3(CCc4ccccc43)CC1)C2` (centres unmarked) [compound 285], at M1 muscarinic receptor, the “M1 Activity” value was “xx (activity was measured to be between 0.1 μM and 1.0 μM)”; the Emax is < 65%. For the same molecule, on M4 muscarinic receptor, the “M4 Activity” value is recorded as “x (activity was measured to be greater than 1.0 μM)” and the Emax is < 65%.

Turning to `CCCCOC(=O)N1C2CCC1CC(N1CCC3(CC1)COc1ccc(F)cc13)C2` (centres unmarked) [compound 286], at M1 muscarinic receptor, the “M1 Activity” value is “xx (activity was measured to be between 0.1 μM and 1.0 μM)”; the Emax was < 65%. At M4 muscarinic receptor, the “M4 Activity” value is recorded as “x (activity was measured to be greater than 1.0 μM)” and the Emax was < 65%.

As for `COC(=O)N1CC2(CCN(C3CC4CCC(C3)N4C(=O)OCC(C)C)CC2)c2cc(F)ccc21` (centres unmarked) [compound 287], at M1 muscarinic receptor, the “M1 Activity” value is “xx (activity was measured to be between 0.1 μM and 1.0 μM)”; the Emax was < 65%. Also, at M4 muscarinic receptor, the “M4 Activity” value is reported as “x (activity was measured to be greater than 1.0 μM)” and the Emax was < 65%.

Consider `Clc1ccc2c(c1)C1(CCO2)CCN(CC2CCOCC2)CC1` [compound 288], for which, at M1 muscarinic receptor, the “M1 Activity” value is given as “x (activity was measured to be greater than 1.0 μM)” and the Emax was < 65%. Besides, at M4 muscarinic receptor, the “M4 Activity” value is “x (activity was measured to be greater than 1.0 μM)” and the Emax was < 65%.

As to `CC(C)NC(=O)N1C2CCC1CC(N1CCC3(CC1)COc1ccc(F)cc13)C2` (centres unmarked) [compound 289], on M1 muscarinic receptor, the “M1 Activity” value was “xxx (activity was measured to be less than 0.1 μM)” and the Emax is < 65%. In addition, on M4 muscarinic receptor, the “M4 Activity” value was “x (activity was measured to be greater than 1.0 μM)” and the Emax was < 65%.

Regarding `CCOC(=O)N1CCC(N2CCC3(CC2)CN(C(=O)N2CCOCC2)c2ccc(F)cc23)CC1` [compound 290], on M1 muscarinic receptor, the “M1 Activity” value is on record as “xxx (activity was measured to be less than 0.1 μM)” and the Emax is < 65%. Moreover, at M4 muscarinic receptor, the “M4 Activity” value is “x (activity was measured to be greater than 1.0 μM)” and the Emax is < 65%.

Consider `CC(=O)NC1CC2(CCN(C3CC4CCC3C4)CC2)c2ccccc21` (centres unmarked) [compound 291], for which, at M1 muscarinic receptor, the “M1 Activity” value was “xx (activity was measured to be between 0.1 μM and 1.0 μM)”; the Emax was 65 to 85%. Further, on M4 muscarinic receptor, the “M4 Activity” value is “x (activity was measured to be greater than 1.0 μM)” and the Emax is 65 to 85%.

For `Cc1ccc2c(c1)C1(CCN(C3CC4CCC3C4)CC1)CN2C(=O)c1ccno1` (centres unmarked) [compound 292], on M1 muscarinic receptor, the “M1 Activity” value was “xx (activity was measured to be between 0.1 μM and 1.0 μM)”; the Emax is 65 to 85%. In addition, at M4 muscarinic receptor, the “M4 Activity” value was “x (activity was measured to be greater than 1.0 μM)” and the Emax lay within 65 to 85%.

As to `COCCOC(=O)N1CCC(N2CCC3(CC2)CN(C(C)=O)c2ccc(C)cc23)CC1` [compound 293], on M1 muscarinic receptor, the “M1 Activity” value was “xx (activity was measured to be between 0.1 μM and 1.0 μM)”; the Emax is > 85%. Moreover, on M4 muscarinic receptor, the “M4 Activity” value was “xxx (activity was measured to be less than 0.1 μM)” and the Emax is > 85%.

Consider `CCCOC(=O)N1C2CCC1CC(N1CCC3(CC1)CN(S(C)(=O)=O)c1ccc(F)cc13)C2` (centres unmarked) [compound 294], for which, on M1 muscarinic receptor, the “M1 Activity” value was “xx (activity was measured to be between 0.1 μM and 1.0 μM)”; the Emax is > 85%. Also, at M4 muscarinic receptor, the “M4 Activity” value is “xx (activity was measured to be between 0.1 μM and 1.0 μM)”; the Emax was 65 to 85%.

As to `CCOC(=O)N1CCC(N2CCC3(CC2)CN(C(C)=O)c2ccc(-c4ccc(C(F)(F)F)cc4)cc23)CC1` [compound 295], at M1 muscarinic receptor, the “M1 Activity” value is listed as “xxx (activity was measured to be less than 0.1 μM)” and the Emax lay in the range of 65 to 85%. For the same molecule, at M4 muscarinic receptor, the “M4 Activity” value is “xxx (activity was measured to be less than 0.1 μM)” and the Emax was 65 to 85%.

Source of the values: US7786141B2 (Vertex Pharmaceuticals Incorporated, priority 2004, dated 2010).
